Values of other authors as cited in PMC6525002 (Cancer Management and Research, 2019).

Legend:
[1] = cited from earlier work
patients with NSCLC = conditions: clinical trials; cited from earlier work
[2] = tested on: NSCLC patients with EGFR mutations; conditions: cited from earlier work

| Compound | time to Cmax ([1]; cancer patients, post-dose) [h] | inter-patient variability of exposure ([1]; post single-dose exposure) [fold] | frequency of diarrhea (patients with NSCLC) | response rates on brain metastases [2] |
| --- | --- | --- | --- | --- |
| COc1cc2ncnc(Nc3ccc(F)c(Cl)c3)c2cc1OCCCN1CCOCC1 [gefitinib] | 3 | 1.5 | – | – |
| CN(C)C/C=C/C(=O)Nc1cc2c(Nc3ccc(F)c(Cl)c3)ncnc2cc1O[C@H]1CCOC1 [afitinib] | – | – | 87.0% | – |
| C#Cc1cccc(Nc2ncnc3cc(OCCOC)c(OCCOC)cc23)c1 [erlotinib] | – | – | 40.0–67.9% | 60–80% |
